In patent US9315467B2, “Compounds for nonsense suppression, and methods for their use” (priority 2004, dated 2016):

Row | melting point | Structure (SMILES)
1 | 258 to 261 °C | O=C(O)c1ccc(-c2ccnc(-c3ccccc3OC(F)(F)F)n2)cc1 [Compound 61, 4-[2-(2-Trifluoromethoxy-phenyl)-pyrimidin-4-yl]-benzoic acid]
2 | 283 to 284 °C | Cc1ccc(-c2cccc(-c3ccc(C(=O)O)cc3)n2)cc1 [Compound 14, 4-(6-p-Tolyl-pyridin-2-yl)-benzoic acid]
3 | > 300 °C | O=C(O)c1ccc(-c2ccnc(-c3ccc(Cl)cc3)n2)cc1 [Compound 22, 4-[2-(4-Chloro-phenyl)-pyrimidin-4-yl]-benzoic acid]
4 | 288 to 290 °C | Cc1ccc(-c2ncnc(-c3ccc(C(=O)O)cc3)n2)cc1 [Compound 46, 4-(4-p-Tolyl-[1,3,5]triazin-2-yl)-benzoic acid]
5 | 295 to 298 °C | O=C(O)c1ccc(-c2ncnc(-c3ccc(F)cc3)n2)cc1 [Compound 47, 4-[4-(4-Fluoro-phenyl)-[1,3,5]triazin-2-yl]-benzoic acid]
6 | 271 to 273 °C | O=C(O)c1cccc(-c2nccc(-c3ccc(C(F)(F)F)cc3)n2)c1 [Compound 78, 3-[4-(4-Trifluoromethyl-phenyl)-pyrimidin-2-yl]-benzoic acid]
7 | 307 to 309 °C | COc1ccc(-c2ncnc(-c3cccc(C(=O)O)c3)n2)cc1 [Compound 48, 3-[4-(4-Methoxy-phenyl)-[1,3,5]triazin-2-yl]-benzoic acid]
8 | 220 to 222 °C | Cc1cccc(-c2ccnc(-c3ccc(C(=O)O)cc3)n2)c1 [Compound 64, 4-(4-m-Tolyl-pyrimidin-2-yl)-benzoic acid]
9 | 293 to 296 °C | O=C(O)c1ccc(-c2nccc(-c3ccc(-c4ccccc4)cc3)n2)cc1 [Compound 39, 4-(4-Biphenyl-4-yl-pyrimidin-2-yl)-benzoic acid]
10 | 271 to 273 °C | O=C(O)c1cccc(-c2nccc(-c3cccc(C(F)(F)F)c3)n2)c1 [Compound 77, 3-[4-(3-Trifluoromethyl-phenyl)-pyrimidin-2-yl]-benzoic acid]
11 | > 300 °C | COc1ccc(-c2ncnc(-c3ccc(C(=O)O)cc3)n2)cc1 [Compound 53, 4-[4-(4-Methoxy-phenyl)-[1,3,5]triazin-2-yl]-benzoic acid]
12 | 250 to 252 °C | COc1ccc(-c2ccnc(-c3ccc(C(=O)O)cc3)n2)cc1OC [Compound 57, 4-[4-(3,4-Dimethoxy-phenyl)-pyrimidin-2-yl]-benzoic acid]
13 | 282 to 285 °C | O=C(O)c1ccc(-c2nccc(-c3ccc(C(F)(F)F)cc3)n2)cc1 [Compound 66, 4-[4-(4-Trifluoromethyl-phenyl)-pyrimidin-2-yl]-benzoic acid]
14 | 260 to 262 °C | Cc1ccc(-c2cncc(-c3ccc(C(=O)O)cc3)c2)cc1 [Compound 15, 4-(5-p-Tolyl-pyridin-3-yl)-benzoic acid]
15 | 242 to 244 °C | CC(C)c1ccc(-c2ccnc(-c3cccc(C(=O)O)c3)n2)cc1 [Compound 70, 3-[4-(4-Isopropyl-phenyl)-pyrimidin-2-yl]-benzoic acid]
16 | 289 to 291 °C | O=C(O)c1ccc(-c2nccc(-c3ccc(N4CCOCC4)cc3)n2)cc1 [Compound 67, 4-[4-(4-Morpholin-4-yl-phenyl)-pyrimidin-2-yl]-benzoic acid]
17 | 167 to 169 °C | CC(C)c1ccc(-c2nccc(-c3cccc(C(N)=O)c3)n2)cc1 [Compound 4, 3-[2-(4-Isopropyl-phenyl)-pyrimidin-4-yl]-benzamide]
18 | > 300 °C | O=C(O)c1ccc(-c2ccnc(-c3ccccc3)n2)cc1 [Compound 28, 4-(2-Phenyl-pyrimidin-4-yl)-benzoic acid]
19 | > 300 °C | O=C(O)c1ccc(-c2ccnc(-c3ccc(C(F)(F)F)cc3)n2)cc1 [Compound 21, 4-[2-(4-Trifluoromethyl-phenyl)-pyrimidin-4-yl]-benzoic acid]
20 | 300 to 303 °C | O=C(O)c1ccc(-c2ccnc(-c3cccc(F)c3)n2)cc1 [Compound 25, 4-[2-(3-Fluoro-phenyl)-pyrimidin-4-yl]-benzoic acid]
21 | 217 to 219 °C | Cc1cccc(-c2ccnc(-c3cccc(C(=O)O)c3)n2)c1 [Compound 76, 3-(4-m-Tolyl-pyrimidin-2-yl)-benzoic acid]
22 | > 300 °C | COc1ccc(-c2nccc(-c3ccc(C(=O)O)cc3)n2)cc1 [Compound 30, 4-[2-(4-Methoxy-phenyl)-pyrimidin-4-yl]-benzoic acid]
23 | 201 to 203 °C | Cc1ccc(-c2cc(-c3cccc(C(=O)O)c3)ncn2)cc1 [Compound 3, 3-(6-p-Tolyl-pyrimidin-4-yl)-benzoic acid]
24 | 234 to 236 °C | O=C(O)c1ccc(-c2nccc(-c3ccc(OC(F)(F)F)cc3)n2)cc1 [Compound 34, 4-[4-(4-Trifluoromethoxy-phenyl)-pyrimidin-2-yl]-benzoic acid]
25 | 201 to 203 °C | O=C(O)c1cccc(-c2nccc(-c3ccccc3F)n2)c1 [Compound 72, 3-[4-(2-Fluoro-phenyl)-pyrimidin-2-yl]-benzoic acid]

Row | melting point | Structure (SMILES)
26 | > 300 °C | O=C(O)c1ccc(-c2ccnc(-c3cccc(OC(F)(F)F)c3)n2)cc1 [Compound 19, 4-[2-(3-Trifluoromethoxy-phenyl)-pyrimidin-4-yl]-benzoic acid]
27 | 293 to 296 °C | CC(C)(C)c1ccc(-c2nccc(-c3ccc(C(=O)O)cc3)n2)cc1 [Compound 17, 4-[2-(4-tert-Butyl-phenyl)-pyrimidin-4-yl]-benzoic acid]
28 | 287 to 289 °C | Cc1ccc(-c2ccnc(-c3ccc(C(=O)O)cc3)n2)cc1 [Compound 35, 4-(4-p-Tolyl-pyrimidin-2-yl)-benzoic acid]
29 | > 300 °C | O=C(O)c1cccc(-c2nccc(-c3ccc(Br)cc3)n2)c1 [Compound 68, 3-[4-(4-Bromo-phenyl)-pyrimidin-2-yl]-benzoic acid]
30 | 198 to 200 °C | Cc1ccccc1-c1nccc(-c2ccc(C(=O)O)cc2)n1 [Compound 26, 4-(2-o-Tolyl-pyrimidin-4-yl)-benzoic acid]
31 | 243 to 245 °C | CC(C)c1ccc(-c2ccnc(-c3ccc(C(=O)O)cc3)n2)cc1 [Compound 36, 4-[4-(4-Isopropyl-phenyl)-pyrimidin-2-yl]-benzoic acid]
32 | > 310 °C | Cc1ccc(-c2nccc(-c3ccc(C(=O)O)cc3)n2)cc1 [Compound 10, 4-(2-p-Tolyl-pyrimidin-4-yl)-benzoic acid]
33 | > 310 °C | O=C(O)c1cccc(-c2nccc(-c3ccc(-n4ccnc4)cc3)n2)c1 [Compound 79, 3-[4-(4-Imidazol-1-yl-phenyl)-pyrimidin-2-yl]-benzoic acid]
34 | 286 to 289 °C | Cc1ccc(-c2cc(-c3ccc(C(=O)O)cc3)ccn2)cc1 [Compound 12, 4-(2-p-Tolyl-pyridin-4-yl)-benzoic acid]
35 | 299 to 302 °C | O=C(O)c1ccc(-c2ccnc(-c3ccc(OC(F)(F)F)cc3)n2)cc1 [Compound 27, 4-[2-(4-Trifluoromethoxy-phenyl)-pyrimidin-4-yl]-benzoic acid]
36 | 252 to 253 °C | Cc1ccc(-c2ccnc(-c3cccc(C(=O)O)c3)n2)cc1 [Compound 73, 3-(4-p-Tolyl-pyrimidin-2-yl)-benzoic acid]
37 | 291 to 294 °C | O=C(O)c1ccc(-c2ccnc(-c3cccc(Cl)c3)n2)cc1 [Compound 20, 4-[2-(3-Chloro-phenyl)-pyrimidin-4-yl]-benzoic acid]
38 | 239 to 241 °C | O=C(O)c1cccc(-c2nccc(-c3ccc4c(c3)OCCO4)n2)c1 [Compound 42, 3-[4-(2,3-Dihydro-benzo[1,4]dioxin-6-yl)-pyrimidin-2-yl]-benzoic acid]
39 | 269 to 272 °C | CCOc1ccc(-c2ncnc(-c3cccc(C(=O)O)c3)n2)cc1 [Compound 45, 3-[4-(4-Ethoxy-phenyl)-[1,3,5]triazin-2-yl]-benzoic acid]
40 | 266 to 269 °C | O=C(O)c1cccc(-c2ncnc(-c3ccc(F)cc3)n2)c1 [Compound 44, 3-[4-(4-Fluoro-phenyl)-[1,3,5]triazin-2-yl]-benzoic acid]
41 | > 300 °C | O=C(O)c1ccc(-c2ccnc(-c3ccccc3F)n2)cc1 [Compound 23, 4-[2-(2-Fluoro-phenyl)-pyrimidin-4-yl]-benzoic acid]
42 | 270 to 273 °C | COc1cccc(-c2nccc(-c3ccc(C(=O)O)cc3)n2)c1 [Compound 16, 4-[2-(3-Methoxy-phenyl)-pyrimidin-4-yl]-benzoic acid]
43 | 296 to 299 °C | O=C(O)c1cccc(-c2nccc(-c3ccc(-c4ccccc4)cc3)n2)c1 [Compound 75, 3-(4-Biphenyl-4-yl-pyrimidin-2-yl)-benzoic acid]
44 | 302 to 305 °C | O=C(O)c1ccc(-c2nccc(-c3ccc(Br)cc3)n2)cc1 [Compound 33, 4-[4-(4-Bromo-phenyl)-pyrimidin-2-yl]-benzoic acid]
45 | > 305 °C | O=C(O)c1ccc(-c2nccc(-c3ccc(-n4ccnc4)cc3)n2)cc1 [Compound 41, 4-[4-(4-Imidazol-1-yl-phenyl)-pyrimidin-2-yl]-benzoic acid]
46 | 253 to 255 °C | O=C(O)c1cccc(-c2nccc(-c3cccc(F)c3)n2)c1 [Compound 74, 3-[4-(3-Fluoro-phenyl)-pyrimidin-2-yl]-benzoic acid]
47 | 288 to 291 °C | Cc1ccc(-c2ccnc(-c3ccc(C(=O)O)cc3)c2)cc1 [Compound 13, 4-(4-p-Tolyl-pyridin-2-yl)-benzoic acid]
48 | 241 to 243 °C | O=C(O)c1cccc(-c2nccc(-c3ccc(OC(F)(F)F)cc3)n2)c1 [Compound 69, 3-[4-(4-Trifluoromethoxy-phenyl)-pyrimidin-2-yl]-benzoic acid]
49 | 251 to 252 °C | O=C(O)c1ccc(-c2ccnc(-c3ccccc3C(F)(F)F)n2)cc1 [Compound 31, 4-[2-(2-Trifluoromethyl-phenyl)-pyrimidin-4-yl]-benzoic acid]
50 | 272 to 274 °C | O=C(O)c1ccc(-c2nccc(-c3ccc4c(c3)OCCO4)n2)cc1 [Compound 40, 4-[4-(2,3-Dihydro-benzo[1,4]dioxin-6-yl)-pyrimidin-2-yl]-benzoic acid]
